{"source": "patent US11919885B1", "about": "“4-(4-bromophenyl)-2-alkyloxy-6-(2-oxo-2H-1-benzopyran-3-yl)pyridine-3-carbonitrile as antimicrobial compounds” (KING FAISAL UNIVERSITY, priority 2023, dated 2024)", "data": [{"system": "Bacillus cereus", "test": "Agar plate disc-diffusion, antibacterial activity (inhibition zone)", "format": "cell-based", "conditions": "A = concentration of comp. = 10,000 μL; nutrient agar, 37° C., 48 h; DMSO control zone subtracted", "method": "(§1) The agar plate disc-diffusion method was applied. Sterilized filter papers (6 mm in diameter) were wetted with 10 μL of a solution of 4-(4-Bromophenyl)-2-ethoxy-6-(2-oxo-2H-1-benzopyran-3-yl)-4-phenylpyridine-3-carbonitrile (1) or 4-(4-Bromophenyl)-2-methoxy-6-(2-oxo-2H-1-benzopyran-3-yl)-4-phenylpyridine-3-carbonitrile (2) to be tested, containing […], and the discs were allowed to air dry. The discs were then placed onto the surface of agar plates (nutrient agar for bacteria and Sabouraud's dextrose agar for fungi) seeded with the test organism. Each plate contained 15 mL of the agar medium, previously seeded with 0.2 mL of the broth culture of each organism pregrown for 18 hours. The plates were incubated at 37° C. for 48 h, and 72 h for fungi. The inhibition zones were measured in mm. Discs impregnated with DMSO were used as a control, and its inhibition zone was subtracted from the tested compound actual inhibition zone.\n(§2) The results of the antimicrobial testing can be observed in Tables 1 and 2, below, using ciprofloxacin as a reference.", "units": {"inhibition zone, Bacillus Cereus, A": "mm"}, "values": [{"smiles": "O=C(O)c1cn(C2CC2)c2cc(N3CCNCC3)c(F)cc2c1=O", "note": "[Cip., ciprofloxacin, reference compound]", "inhibition zone, Bacillus Cereus, A": 29}]}, {"system": "Bacillus cereus", "test": "Agar plate disc-diffusion, antibacterial activity (inhibition zone)", "format": "cell-based", "conditions": "B = concentration of comp. = 30.000 μL; nutrient agar, 37° C., 48 h; DMSO control zone subtracted", "method": "as §1, §2", "units": {"inhibition zone, Bacillus Cereus, B": "mm"}, "values": [{"smiles": "O=C(O)c1cn(C2CC2)c2cc(N3CCNCC3)c(F)cc2c1=O", "note": "[Cip., ciprofloxacin, reference compound]", "inhibition zone, Bacillus Cereus, B": 30}]}, {"system": "Bacillus cereus", "test": "Agar plate disc-diffusion, antibacterial activity (inhibition zone)", "format": "cell-based", "conditions": "C = concentration of comp. = 50,000 μL; nutrient agar, 37° C., 48 h; DMSO control zone subtracted", "method": "as §1, §2", "units": {"inhibition zone, Bacillus Cereus, C": "mm"}, "values": [{"smiles": "O=C(O)c1cn(C2CC2)c2cc(N3CCNCC3)c(F)cc2c1=O", "note": "[Cip., ciprofloxacin, reference compound]", "inhibition zone, Bacillus Cereus, C": 42}]}, {"system": "Escherichia coli", "test": "Agar plate disc-diffusion, antibacterial activity (inhibition zone)", "format": "cell-based", "conditions": "A = concentration of comp. = 10,000 μL; nutrient agar, 37° C., 48 h; DMSO control zone subtracted", "method": "as §1, §2", "units": {"inhibition zone, Escherichia coli, A": "mm"}, "values": [{"smiles": "O=C(O)c1cn(C2CC2)c2cc(N3CCNCC3)c(F)cc2c1=O", "note": "[Cip., ciprofloxacin, reference compound]", "inhibition zone, Escherichia coli, A": 30}]}, {"system": "Escherichia coli", "test": "Agar plate disc-diffusion, antibacterial activity (inhibition zone)", "format": "cell-based", "conditions": "B = concentration of comp. = 30.000 μL; nutrient agar, 37° C., 48 h; DMSO control zone subtracted", "method": "as §1, §2", "units": {"inhibition zone, Escherichia coli, B": "mm"}, "values": [{"smiles": "O=C(O)c1cn(C2CC2)c2cc(N3CCNCC3)c(F)cc2c1=O", "note": "[Cip., ciprofloxacin, reference compound]", "inhibition zone, Escherichia coli, B": 39}]}, {"system": "Escherichia coli", "test": "Agar plate disc-diffusion, antibacterial activity (inhibition zone)", "format": "cell-based", "conditions": "C = concentration of comp. = 50,000 μL; nutrient agar, 37° C., 48 h; DMSO control zone subtracted", "method": "as §1, §2", "units": {"inhibition zone, Escherichia coli, C": "mm"}, "values": [{"smiles": "O=C(O)c1cn(C2CC2)c2cc(N3CCNCC3)c(F)cc2c1=O", "note": "[Cip., ciprofloxacin, reference compound]", "inhibition zone, Escherichia coli, C": 60}]}, {"system": "Pseudomonas aeruginosa", "test": "Agar plate disc-diffusion, antibacterial activity (inhibition zone)", "format": "cell-based", "conditions": "A = concentration of comp. = 10,000 μL; nutrient agar, 37° C., 48 h; DMSO control zone subtracted", "method": "as §1, §2", "units": {"inhibition zone, Pseudomonas aeruginosa, A": "mm"}, "values": [{"smiles": "O=C(O)c1cn(C2CC2)c2cc(N3CCNCC3)c(F)cc2c1=O", "note": "[Cip., ciprofloxacin, reference compound]", "inhibition zone, Pseudomonas aeruginosa, A": 29}]}, {"system": "Pseudomonas aeruginosa", "test": "Agar plate disc-diffusion, antibacterial activity (inhibition zone)", "format": "cell-based", "conditions": "B = concentration of comp. = 30.000 μL; nutrient agar, 37° C., 48 h; DMSO control zone subtracted", "method": "as §1, §2", "units": {"inhibition zone, Pseudomonas aeruginosa, B": "mm"}, "values": [{"smiles": "O=C(O)c1cn(C2CC2)c2cc(N3CCNCC3)c(F)cc2c1=O", "note": "[Cip., ciprofloxacin, reference compound]", "inhibition zone, Pseudomonas aeruginosa, B": 30}]}, {"system": "Pseudomonas aeruginosa", "test": "Agar plate disc-diffusion, antibacterial activity (inhibition zone)", "format": "cell-based", "conditions": "C = concentration of comp. = 50,000 μL; nutrient agar, 37° C., 48 h; DMSO control zone subtracted", "method": "as §1, §2", "units": {"inhibition zone, Pseudomonas aeruginosa, C": "mm"}, "values": [{"smiles": "O=C(O)c1cn(C2CC2)c2cc(N3CCNCC3)c(F)cc2c1=O", "note": "[Cip., ciprofloxacin, reference compound]", "inhibition zone, Pseudomonas aeruginosa, C": 53}]}, {"system": "Staphylococcus aureus", "test": "Agar plate disc-diffusion, antibacterial activity (inhibition zone)", "format": "cell-based", "conditions": "A = concentration of comp. = 10,000 μL; nutrient agar, 37° C., 48 h; DMSO control zone subtracted", "method": "as §1, §2", "units": {"inhibition zone, Staphylococcus aureus, A": "mm"}, "values": [{"smiles": "O=C(O)c1cn(C2CC2)c2cc(N3CCNCC3)c(F)cc2c1=O", "note": "[Cip., ciprofloxacin, reference compound]", "inhibition zone, Staphylococcus aureus, A": 43}]}, {"system": "Staphylococcus aureus", "test": "Agar plate disc-diffusion, antibacterial activity (inhibition zone)", "format": "cell-based", "conditions": "B = concentration of comp. = 30.000 μL; nutrient agar, 37° C., 48 h; DMSO control zone subtracted", "method": "as §1, §2", "units": {"inhibition zone, Staphylococcus aureus, B": "mm"}, "values": [{"smiles": "O=C(O)c1cn(C2CC2)c2cc(N3CCNCC3)c(F)cc2c1=O", "note": "[Cip., ciprofloxacin, reference compound]", "inhibition zone, Staphylococcus aureus, B": 44}]}, {"system": "Staphylococcus aureus", "test": "Agar plate disc-diffusion, antibacterial activity (inhibition zone)", "format": "cell-based", "conditions": "C = concentration of comp. = 50,000 μL; nutrient agar, 37° C., 48 h; DMSO control zone subtracted", "method": "as §1, §2", "units": {"inhibition zone, Staphylococcus aureus, C": "mm"}, "values": [{"smiles": "O=C(O)c1cn(C2CC2)c2cc(N3CCNCC3)c(F)cc2c1=O", "note": "[Cip., ciprofloxacin, reference compound]", "inhibition zone, Staphylococcus aureus, C": 53}]}, {"system": "Chrysosporium keratinophilum", "test": "Agar plate disc-diffusion, antifungal activity (inhibition zone)", "format": "cell-based", "conditions": "A = concentration of comp. = 10,000 μL; Sabouraud's dextrose agar, 37° C., 72 h; DMSO control zone subtracted", "method": "as §1, §2", "units": {"inhibition zone, Chrysosporium keratinophilum, A": "mm"}, "values": [{"smiles": "O=C(O)c1cn(C2CC2)c2cc(N3CCNCC3)c(F)cc2c1=O", "note": "[Cip., ciprofloxacin, reference compound]", "inhibition zone, Chrysosporium keratinophilum, A": 29}]}, {"system": "Chrysosporium keratinophilum", "test": "Agar plate disc-diffusion, antifungal activity (inhibition zone)", "format": "cell-based", "conditions": "B = concentration of comp. = 30.000 μL; Sabouraud's dextrose agar, 37° C., 72 h; DMSO control zone subtracted", "method": "as §1, §2", "units": {"inhibition zone, Chrysosporium keratinophilum, B": "mm"}, "values": [{"smiles": "O=C(O)c1cn(C2CC2)c2cc(N3CCNCC3)c(F)cc2c1=O", "note": "[Cip., ciprofloxacin, reference compound]", "inhibition zone, Chrysosporium keratinophilum, B": 30}]}, {"system": "Chrysosporium keratinophilum", "test": "Agar plate disc-diffusion, antifungal activity (inhibition zone)", "format": "cell-based", "conditions": "C = concentration of comp. = 50,000 μL; Sabouraud's dextrose agar, 37° C., 72 h; DMSO control zone subtracted", "method": "as §1, §2", "units": {"inhibition zone, Chrysosporium keratinophilum, C": "mm"}, "values": [{"smiles": "O=C(O)c1cn(C2CC2)c2cc(N3CCNCC3)c(F)cc2c1=O", "note": "[Cip., ciprofloxacin, reference compound]", "inhibition zone, Chrysosporium keratinophilum, C": 53}]}, {"system": "Aspergillus flavus", "test": "Agar plate disc-diffusion, antifungal activity (inhibition zone)", "format": "cell-based", "conditions": "A = concentration of comp. = 10,000 μL; Sabouraud's dextrose agar, 37° C., 72 h; DMSO control zone subtracted", "method": "as §1, §2", "units": {"inhibition zone, Aspergillus flavus, A": "mm"}, "values": [{"smiles": "O=C(O)c1cn(C2CC2)c2cc(N3CCNCC3)c(F)cc2c1=O", "note": "[Cip., ciprofloxacin, reference compound]", "inhibition zone, Aspergillus flavus, A": 29}]}, {"system": "Aspergillus flavus", "test": "Agar plate disc-diffusion, antifungal activity (inhibition zone)", "format": "cell-based", "conditions": "B = concentration of comp. = 30.000 μL; Sabouraud's dextrose agar, 37° C., 72 h; DMSO control zone subtracted", "method": "as §1, §2", "units": {"inhibition zone, Aspergillus flavus, B": "mm"}, "values": [{"smiles": "O=C(O)c1cn(C2CC2)c2cc(N3CCNCC3)c(F)cc2c1=O", "note": "[Cip., ciprofloxacin, reference compound]", "inhibition zone, Aspergillus flavus, B": 30}]}, {"system": "Aspergillus flavus", "test": "Agar plate disc-diffusion, antifungal activity (inhibition zone)", "format": "cell-based", "conditions": "C = concentration of comp. = 50,000 μL; Sabouraud's dextrose agar, 37° C., 72 h; DMSO control zone subtracted", "method": "as §1, §2", "units": {"inhibition zone, Aspergillus flavus, C": "mm"}, "values": [{"smiles": "O=C(O)c1cn(C2CC2)c2cc(N3CCNCC3)c(F)cc2c1=O", "note": "[Cip., ciprofloxacin, reference compound]", "inhibition zone, Aspergillus flavus, C": 42}]}]}
